Laboratory results taken from patent US20220411471A1, “CELL-PERMEABLE CYCLIC PEPTIDES AND USES THEREOF” (Unnatural Products Inc., priority 2019, published 2022).
Non-standard residues stand in square brackets, D forms with d. Residues, ends and D or L forms follow the SMILES beside them. NEtPhe(4-F) = CCN[C@@H](Cc1ccc(F)cc1)C(=O)O; Ala(4-thiazolyl) = N[C@@H](Cc1cscn1)C(=O)O; NMePhe(4-F) = CN[C@@H](Cc1ccc(F)cc1)C(=O)O; Phe(4-Cl) = N[C@@H](Cc1ccc(Cl)cc1)C(=O)O; Phe(4-F) = N[C@@H](Cc1ccc(F)cc1)C(=O)O; NMeF = CN[C@@H](Cc1ccccc1)C(=O)O; Tle = CC(C)(C)[C@H](N)C(=O)O; NMeV = CN[C@H](C(=O)O)C(C)C; Pip = O=C(O)[C@@H]1CCCCN1; hSer = N[C@@H](CCO)C(=O)O; NMeA = CN[C@@H](C)C(=O)O; dNMeA = CN[C@H](C)C(=O)O; Abu = CC[C@H](N)C(=O)O; Nme = COCCNCC(=O)O

How the values were obtained:
Human MDM4 (HDM4) 1-114 = target: T1, Human MDM4 (HDM4) 1-114 (Homo sapiens, UniProt O15151); test: Fluorescence polarization assay 2, MDM4 (Table 4); type: binding; details: Table 4; fluorescence polarization; read-out: MDM4 IC50
T1 construct: Human MDM4 (HDM4) 1-114
T1 sequence (O15151 1-114): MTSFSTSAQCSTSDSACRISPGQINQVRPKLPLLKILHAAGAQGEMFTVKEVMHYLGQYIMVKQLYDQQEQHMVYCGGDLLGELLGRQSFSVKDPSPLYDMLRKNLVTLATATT
Procedure: (§1) Compounds dissolved in DMSO were pin transferred (˜100-200 nL) to the 384 well plate containing the MDM4/p53 solution. After incubation for 60 minutes, the fluorescence polarization was read on a Molecular Devices SpectraMax plate reader equipped with a Fluorescein FP cartridge. In addition to probe alone (positive control) and probe/MDM4 (negative control), a titration of linear p53(18-26) was included on every plate as an additional control. IC50 values were fit using either Prism or Collaborative Drug Discovery.

Human MDM2 (HDM2) 1-116 = target: T2, Human MDM2 (HDM2) 1-116 (Homo sapiens, UniProt Q00987); test: Fluorescence polarization assay 2, MDM2 (Table 4); type: binding; details: Table 4; fluorescence polarization; read-out: MDM2 IC50
T2 construct: Human MDM2 (HDM2) 1-116
Procedure: as §1, with “MDM2/p53” for “MDM4/p53”, “probe/MDM2” for “probe/MDM4”

T2 sequence (Q00987 1-116): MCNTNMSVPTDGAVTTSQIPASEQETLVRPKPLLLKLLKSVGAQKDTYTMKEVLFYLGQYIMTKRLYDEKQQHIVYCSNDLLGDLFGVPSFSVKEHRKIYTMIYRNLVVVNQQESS

Row | Compound | IC50 (Human MDM4 (HDM4) 1-114) [nM] | IC50 (Human MDM2 (HDM2) 1-116) [nM]
1 | COCC[C@@H]1NC(=O)[C@H]2CCCN2C(=O)[C@H](Cc2ccccc2)N(C)C(=O)[C@H](Cc2ccc(Cl)cc2)NC(=O)[C@H](C)N(C)C(=O)[C@H](Cc2ccc(F)cc2)NC(=O)CN(CCOC)C(=O)[C@@H](C)N(C)C(=O)[C@H](Cc2cscn2)NC(=O)[C@H](C)N(C)C1=O [Compound 40, COCC[C@@H]1NC(=O)[C@H]2CCCN2C(=O)[C@H](CC2=CC=CC=C2)N(C)C(=O)[C@H](CC2=CC=C(Cl)C=C2)NC(=O)[C@H](C)N(C)C(=O)[C@H](CC2=CC=C(F)C=C2)NC(=O)CN(CCOC)C(=O)[C@@H](C)N(C)C(=O)[C@H](CC2=CSC=N2)NC(=O)[C@H](C)N(C)C1=O] (cyclo([Ala(4-thiazolyl)][dNMeA][Nme][Phe(4-F)][NMeA][Phe(4-Cl)][NMeF][dP][hSer](Me)[NMeA])) | > 150 | 25 to 50
2 | COCC[C@@H]1NC(=O)[C@H]2CCCN2C(=O)[C@H](Cc2ccccc2)N(C)C(=O)[C@H](Cc2ccc(Cl)cc2)NC(=O)[C@H](C(C)(C)C)NC(=O)[C@H](Cc2ccc(F)cc2)NC(=O)CN(CCOC)C(=O)[C@@H](C)N(C)C(=O)[C@H](Cc2ccc(O)cc2)NC(=O)[C@H](C)N(C)C1=O [Compound 32, [H]Oc1ccc(C[C@@H]2NC(=O)[C@H](C)N(C)C(=O)[C@H](CCOC)NC(=O)[C@H]3CCCN3C(=O)[C@H](Cc3ccccc3)N(C)C(=O)[C@H](Cc3ccc(Cl)cc3)NC(=O)[C@@H](NC(=O)[C@H](Cc3ccc(F)cc3)NC(=O)CN(CCOC)C(=O)[C@@H](C)N(C)C2=O)C(C)(C)C)cc1] (cyclo([NMeA]Y[dNMeA][Nme][Phe(4-F)][Tle][Phe(4-Cl)][NMeF][dP][hSer](Me))) | > 150 | < 25
3 | COCC[C@@H]1NC(=O)[C@H]2CCCN2C(=O)[C@H](Cc2ccc(F)cc2)N(C)C(=O)[C@H](Cc2ccc(Cl)cc2)NC(=O)[C@@H]2CCCCN2C(=O)[C@H](Cc2ccc(F)cc2)NC(=O)CN(CCOC)C(=O)[C@@H](C)N(C)C(=O)[C@H](Cc2cscn2)NC(=O)[C@H](C)N(C)C1=O [Compound 46, COCC[C@@H]1NC(=O)[C@H]2CCCN2C(=O)[C@H](Cc2ccc(F)cc2)N(C)C(=O)[C@H](Cc2ccc(Cl)cc2)NC(=O)[C@@H]2CCCCN2C(=O)[C@H](Cc2ccc(F)cc2)NC(=O)CN(CCOC)C(=O)[C@@H](C)N(C)C(=O)[C@H](Cc2cscn2)NC(=O)[C@H](C)N(C)C1=O] (cyclo([Ala(4-thiazolyl)][dNMeA][Nme][Phe(4-F)][Pip][Phe(4-Cl)][NMePhe(4-F)][dP][hSer](Me)[NMeA])) | 100 to 150 | 50 to 100
4 | CCN1C(=O)[C@H](Cc2ccc(Cl)cc2)NC(=O)[C@H](C(C)(C)C)NC(=O)[C@H](Cc2ccc(F)cc2)NC(=O)CN(CCOC)C(=O)[C@@H](C)N(C)C(=O)[C@H](Cc2cscn2)NC(=O)[C@H](C)N(C)C(=O)[C@H](CCOC)NC(=O)[C@H]2CCCN2C(=O)[C@@H]1Cc1ccc(F)cc1 [Compound 44, CCN1[C@@H](Cc2ccc(F)cc2)C(=O)N2CCC[C@@H]2C(=O)N[C@@H](CCOC)C(=O)N(C)[C@@H](C)C(=O)N[C@@H](Cc2cscn2)C(=O)N(C)[C@H](C)C(=O)N(CCOC)CC(=O)N[C@@H](Cc2ccc(F)cc2)C(=O)N[C@H](C(=O)N[C@@H](Cc2ccc(Cl)cc2)C1=O)C(C)(C)C] (cyclo([Ala(4-thiazolyl)][dNMeA][Nme][Phe(4-F)][Tle][Phe(4-Cl)][NEtPhe(4-F)][dP][hSer](Me)[NMeA])) | > 150 | 50 to 100

The remaining lines, values ahead:

Row | IC50 (Human MDM4 (HDM4) 1-114) [nM] | IC50 (Human MDM2 (HDM2) 1-116) [nM] | Compound
5 | 50 to 100 | < 25 | COCC[C@@H]1NC(=O)[C@H]2CCCN2C(=O)[C@H](Cc2ccccc2)N(C)C(=O)[C@H](Cc2ccc(Cl)cc2)NC(=O)[C@H](C(C)(C)C)NC(=O)[C@H](Cc2ccc(F)cc2)NC(=O)[C@H](C)N(C)C(=O)[C@@H](C)N(C)C(=O)[C@H](Cc2cscn2)NC(=O)[C@H](C)N(C)C1=O [Compound 36, COCC[C@@H]1NC(=O)[C@H]2CCCN2C(=O)[C@H](Cc2ccccc2)N(C)C(=O)[C@H](Cc2ccc(Cl)cc2)NC(=O)[C@@H](NC(=O)[C@H](Cc2ccc(F)cc2)NC(=O)[C@H](C)N(C)C(=O)[C@@H](C)N(C)C(=O)[C@H](CC2=CSC=N2)NC(=O)[C@H](C)N(C)C1=O)C(C)(C)C] (cyclo([Ala(4-thiazolyl)][dNMeA][NMeA][Phe(4-F)][Tle][Phe(4-Cl)][NMeF][dP][hSer](Me)[NMeA]))
6 | 100 to 150 | 25 to 50 | CC[C@@H]1NC(=O)[C@H](Cc2ccc(F)cc2)NC(=O)CN(CCOC)C(=O)[C@@H](C)N(C)C(=O)[C@H](Cc2cscn2)NC(=O)[C@H](C)N(C)C(=O)[C@H](CCOC)NC(=O)[C@H]2CCCN2C(=O)[C@H](Cc2ccccc2)N(C)C(=O)[C@H](Cc2ccc(Cl)cc2)NC1=O [Compound 42, CC[C@@H]1NC(=O)[C@H](CC2=CC=C(F)C=C2)NC(=O)CN(CCOC)C(=O)[C@@H](C)N(C)C(=O)[C@H](CC2=CSC=N2)NC(=O)[C@H](C)N(C)C(=O)[C@H](CCOC)NC(=O)[C@H]2CCCN2C(=O)[C@H](CC2=CC=CC=C2)N(C)C(=O)[C@H](CC2=CC=C(Cl)C=C2)NC1=O] (cyclo([Abu][Phe(4-Cl)][NMeF][dP][hSer](Me)[NMeA][Ala(4-thiazolyl)][dNMeA][Nme][Phe(4-F)]))
7 | 50 to 100 | 25 to 50 | COCC[C@@H]1NC(=O)[C@H]2CCCN2C(=O)[C@H](Cc2ccc(F)cc2)N(C)C(=O)[C@H](Cc2ccc(Cl)cc2)NC(=O)[C@H](C(C)(C)C)NC(=O)[C@H](Cc2ccc(F)cc2)NC(=O)[C@H](C)N(C)C(=O)[C@@H](C)N(C)C(=O)[C@H](Cc2cscn2)NC(=O)[C@H](C)N(C)C1=O [Compound 38, COCC[C@@H]1NC(=O)[C@H]2CCCN2C(=O)[C@H](Cc2ccc(F)cc2)N(C)C(=O)[C@H](CC2=CC=C(Cl)C=C2)NC(=O)[C@@H](NC(=O)[C@H](Cc2ccc(F)cc2)NC(=O)[C@H](C)N(C)C(=O)[C@@H](C)N(C)C(=O)[C@H](CC2=CSC=N2)NC(=O)[C@H](C)N(C)C1=O)C(C)(C)C] (cyclo([Ala(4-thiazolyl)][dNMeA][NMeA][Phe(4-F)][Tle][Phe(4-Cl)][NMePhe(4-F)][dP][hSer](Me)[NMeA]))
8 | 100 to 150 | 25 to 50 | COCC[C@@H]1NC(=O)[C@H]2CCCN2C(=O)[C@H](Cc2ccccc2)N(C)C(=O)[C@H](Cc2ccc(Cl)cc2)NC(=O)[C@H](C(C)C)N(C)C(=O)[C@H](Cc2ccc(F)cc2)NC(=O)CN(CCOC)C(=O)[C@@H](C)N(C)C(=O)[C@H](Cc2cscn2)NC(=O)[C@H](C)N(C)C1=O [Compound 43, COCC[C@@H]1NC(=O)[C@H]2CCCN2C(=O)[C@H](CC2=CC=CC=C2)N(C)C(=O)[C@H](CC2=CC=C(Cl)C=C2)NC(=O)[C@H](C(C)C)N(C)C(=O)[C@H](CC2=CC=C(F)C=C2)NC(=O)CN(CCOC)C(=O)[C@@H](C)N(C)C(=O)[C@H](CC2=CSC=N2)NC(=O)[C@H](C)N(C)C1=O] (cyclo([Ala(4-thiazolyl)][dNMeA][Nme][Phe(4-F)][NMeV][Phe(4-Cl)][NMeF][dP][hSer](Me)[NMeA]))
9 | 50 to 100 | 25 to 50 | COCC[C@@H]1NC(=O)[C@H]2CCCN2C(=O)[C@H](Cc2ccc(F)cc2)N(C)C(=O)[C@H](Cc2ccc(Cl)cc2)NC(=O)[C@H](C(C)(C)C)NC(=O)[C@H](Cc2ccc(F)cc2)NC(=O)CN(CCOC)C(=O)[C@@H](C)N(C)C(=O)[C@H](Cc2cscn2)NC(=O)[C@H](C)N(C)C1=O [Compound 37, COCC[C@@H]1NC(=O)[C@H]2CCCN2C(=O)[C@H](Cc2ccc(F)cc2)N(C)C(=O)[C@H](CC2=CC=C(Cl)C=C2)NC(=O)[C@@H](NC(=O)[C@H](Cc2ccc(F)cc2)NC(=O)CN(CCOC)C(=O)[C@@H](C)N(C)C(=O)[C@H](CC2=CSC=N2)NC(=O)[C@H](C)N(C)C1=O)C(C)(C)C] (cyclo([Ala(4-thiazolyl)][dNMeA][Nme][Phe(4-F)][Tle][Phe(4-Cl)][NMePhe(4-F)][dP][hSer](Me)[NMeA]))
